Measurements as given in ChEMBL document CHEMBL1201862, “PubChem BioAssay data set” (2004).
Calls of active or inactive are those of the source. Cut-off read from the data, not from the text of the source, for most assays here: actives have a measured AC50 and inactives only a lower limit.

Key:
[1] = target: T1, Replicative DNA helicase DnaB (Mycobacterium tuberculosis, UniProt P9WMR3); experiment: DnaB intein splicing inhibitors, dose response, biochemical, cell-free fluorescence (AID 449749); format: functional
T1 sequence (P9WMR3 whole entry): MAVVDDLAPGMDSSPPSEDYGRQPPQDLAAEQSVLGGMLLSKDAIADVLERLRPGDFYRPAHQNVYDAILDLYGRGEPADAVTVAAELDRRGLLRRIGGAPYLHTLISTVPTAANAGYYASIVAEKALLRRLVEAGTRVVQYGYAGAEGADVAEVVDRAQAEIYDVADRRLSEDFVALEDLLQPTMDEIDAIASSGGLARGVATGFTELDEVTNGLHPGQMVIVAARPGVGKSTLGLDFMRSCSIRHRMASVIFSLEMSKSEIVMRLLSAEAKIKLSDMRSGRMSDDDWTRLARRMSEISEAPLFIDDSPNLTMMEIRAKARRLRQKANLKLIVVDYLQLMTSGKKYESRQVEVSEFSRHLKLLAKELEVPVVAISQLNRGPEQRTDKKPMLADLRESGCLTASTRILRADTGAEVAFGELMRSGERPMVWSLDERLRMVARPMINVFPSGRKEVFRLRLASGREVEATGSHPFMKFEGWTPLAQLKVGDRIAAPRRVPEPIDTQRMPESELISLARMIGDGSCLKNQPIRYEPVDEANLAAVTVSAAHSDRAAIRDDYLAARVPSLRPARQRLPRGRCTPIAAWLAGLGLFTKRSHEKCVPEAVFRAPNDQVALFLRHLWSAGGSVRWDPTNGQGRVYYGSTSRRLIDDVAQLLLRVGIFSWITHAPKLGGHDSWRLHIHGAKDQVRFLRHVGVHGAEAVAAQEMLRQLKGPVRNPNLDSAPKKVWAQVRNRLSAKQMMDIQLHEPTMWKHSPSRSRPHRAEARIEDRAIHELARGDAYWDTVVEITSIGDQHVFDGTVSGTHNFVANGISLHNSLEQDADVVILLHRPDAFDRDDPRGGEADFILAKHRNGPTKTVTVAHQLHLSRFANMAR

Protein RecA = target: T2, Protein RecA (Mycobacterium tuberculosis, UniProt P9WHJ3); experiment: Fluorescence Cell-Free Homogeneous Dose Retest to Identify Inhibitors of RecA-Intein Splicing Activity. [Related pubchem assays (depositor defined):AID2097, AID2223, AID489010, AID492950]; format: functional
T2 sequence (P9WHJ3 whole entry): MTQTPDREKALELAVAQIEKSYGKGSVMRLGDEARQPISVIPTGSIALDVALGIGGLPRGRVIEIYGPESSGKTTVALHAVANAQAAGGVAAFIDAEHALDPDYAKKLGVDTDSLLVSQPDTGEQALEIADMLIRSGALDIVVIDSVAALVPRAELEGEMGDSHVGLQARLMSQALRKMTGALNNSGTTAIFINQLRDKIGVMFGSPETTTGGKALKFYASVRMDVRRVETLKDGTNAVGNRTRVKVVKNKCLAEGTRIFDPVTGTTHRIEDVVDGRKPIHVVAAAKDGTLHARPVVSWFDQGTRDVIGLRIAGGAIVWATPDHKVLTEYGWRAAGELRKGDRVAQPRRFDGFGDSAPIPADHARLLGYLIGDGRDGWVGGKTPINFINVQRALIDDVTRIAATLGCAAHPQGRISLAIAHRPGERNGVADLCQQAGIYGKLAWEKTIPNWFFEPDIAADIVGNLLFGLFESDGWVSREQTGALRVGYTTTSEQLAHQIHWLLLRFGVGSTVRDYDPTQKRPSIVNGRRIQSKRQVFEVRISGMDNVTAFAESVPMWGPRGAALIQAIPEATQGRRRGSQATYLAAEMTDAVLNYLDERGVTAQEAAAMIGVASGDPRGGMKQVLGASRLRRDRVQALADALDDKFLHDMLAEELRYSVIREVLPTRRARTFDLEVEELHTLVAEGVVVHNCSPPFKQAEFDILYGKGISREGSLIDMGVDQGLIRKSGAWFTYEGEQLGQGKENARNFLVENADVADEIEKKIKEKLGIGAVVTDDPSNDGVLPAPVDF

[2] = target: T3, Histone-lysine N-methyltransferase NSD2 (Homo sapiens, UniProt O96028); format: biochemical
T3 sequence (O96028 whole entry): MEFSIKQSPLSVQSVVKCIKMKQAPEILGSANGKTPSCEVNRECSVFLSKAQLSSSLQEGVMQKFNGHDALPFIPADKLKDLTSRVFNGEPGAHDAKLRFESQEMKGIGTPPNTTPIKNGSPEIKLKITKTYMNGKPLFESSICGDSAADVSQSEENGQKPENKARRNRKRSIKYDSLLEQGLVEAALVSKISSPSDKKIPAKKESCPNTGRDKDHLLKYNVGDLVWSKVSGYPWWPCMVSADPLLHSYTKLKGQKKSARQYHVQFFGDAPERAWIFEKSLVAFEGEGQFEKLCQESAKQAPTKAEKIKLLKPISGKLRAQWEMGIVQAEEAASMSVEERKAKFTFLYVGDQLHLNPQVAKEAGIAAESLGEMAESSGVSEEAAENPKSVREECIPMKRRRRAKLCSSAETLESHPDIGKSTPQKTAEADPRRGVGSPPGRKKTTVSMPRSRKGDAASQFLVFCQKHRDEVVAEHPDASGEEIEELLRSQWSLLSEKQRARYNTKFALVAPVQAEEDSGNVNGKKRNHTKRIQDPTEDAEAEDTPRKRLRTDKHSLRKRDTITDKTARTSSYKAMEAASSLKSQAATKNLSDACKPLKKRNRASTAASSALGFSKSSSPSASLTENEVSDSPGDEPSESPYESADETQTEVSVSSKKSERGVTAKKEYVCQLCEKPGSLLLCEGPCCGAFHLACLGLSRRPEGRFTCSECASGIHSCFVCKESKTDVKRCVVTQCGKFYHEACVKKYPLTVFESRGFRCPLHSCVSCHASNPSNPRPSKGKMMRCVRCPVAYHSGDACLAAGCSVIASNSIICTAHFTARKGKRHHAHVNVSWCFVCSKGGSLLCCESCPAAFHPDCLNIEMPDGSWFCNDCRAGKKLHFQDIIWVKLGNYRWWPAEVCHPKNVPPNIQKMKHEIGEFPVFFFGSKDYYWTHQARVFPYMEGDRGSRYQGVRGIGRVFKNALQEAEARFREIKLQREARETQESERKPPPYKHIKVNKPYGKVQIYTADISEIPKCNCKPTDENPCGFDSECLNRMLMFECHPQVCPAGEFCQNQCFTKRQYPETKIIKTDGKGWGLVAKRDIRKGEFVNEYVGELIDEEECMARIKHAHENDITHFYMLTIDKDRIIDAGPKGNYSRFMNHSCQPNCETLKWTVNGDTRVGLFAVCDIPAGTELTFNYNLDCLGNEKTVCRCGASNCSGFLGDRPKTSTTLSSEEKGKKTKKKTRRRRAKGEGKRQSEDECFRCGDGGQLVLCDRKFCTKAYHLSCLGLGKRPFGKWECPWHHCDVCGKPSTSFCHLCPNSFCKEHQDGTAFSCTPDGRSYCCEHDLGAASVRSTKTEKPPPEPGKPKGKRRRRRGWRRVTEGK

Row | Compound | AC50 [1] | EC50 (Protein RecA) | AC50 [2]
1 | N#Cc1c(N2CCCCC2)nc(N)c2c(N)nc(SCC(=O)O)cc12 | 24.9 µM (active) | 9.14 µM (active) | 
2 | CC1(C)Cc2ccccc2C2=NNC(=O)C2=N1 | 0.343 µM (active) | 1.17 µM (active) | 16.4 µM (active)
3 | CCc1ccc(S(=O)(=O)Nc2cc(SCC(=O)O)c(O)c3ccccc23)cc1 | 0.77 µM (active) | 0.217 µM (active) | 4.83 µM (active)
4 | O=[N+]([O-])c1ccc(Sc2cccc[n+]2[O-])c2nonc12 | 5.25 µM (active) | 4.93 µM (active) | 5.12 µM (active)
5 | Oc1c(Cl)cc(Cl)c(Cl)c1Cc1c(O)c(Cl)cc(Cl)c1Cl [HEXACHLOROPHENE] | 1.81 µM (active) | 7.27 µM (active) | 
